In brackets after ≈: the same amount, converted by molar mass.
Assays:
[1] = tested on: Escherichia coli ATCC 25922; experiment: Minimal Inhibitory Concentration (MIC) broth dilution assay, E. coli ATCC 25922; assay type: cell-based; conditions: Escherichia coli, ATCC25922, 20 h, read-out: MIC E. coli ATCC 25922
Procedure, shortened: (§1)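 Broth microdilution with twofold compound series in cation-adjusted Mueller Hinton broth, inoculum 5×10^5 CFU/mL, applied to each strain. Plates incubated 20 h at 35 °C in ambient air. MIC […] recorded as the lowest concentration with no visible growth, read by eye.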

[2] = tested on: Escherichia coli BW 25113; experiment: Minimal Inhibitory Concentration (MIC) broth dilution assay, E. coli BW 25113; assay type: cell-based; conditions: Escherichia coli, BW25113, 20 hours at 35° C., CAMHB, read-out: MIC E. coli K-12 BW 25113
Procedure, shortened: as §1

[3] = tested on: Klebsiella pneumonia ATCC 43816; experiment: Minimal Inhibitory Concentration (MIC) broth dilution assay, K. pneumonia ATCC 43816; assay type: cell-based; conditions: Klebsiella pneumoniae, ATCC43816, 20 hours at 35° C., CAMHB, read-out: MIC K. p ATCC 43816
Procedure, shortened: as §1

[4] = Human microsome stability assay; assay type: in vitro ADME; conditions: human liver microsomes 0.5 mg/mL, 37° C., pH 7.4, NADPH regenerating system
Procedure, shortened: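 Compound […] with 0.5 mg/mL human liver microsomal protein in 100 mM potassium phosphate pH 7.4, 10 min preincubation at 37 °C, started with NADPH regenerating system. Sampled 0–30 min, remaining compound by LC-MS/MS; clearance binned low <7, medium 7–16.2, high >16.2 mL/min/kg.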

[5] = molecular target: Escherichia coli UDP-2,3-diacylglucosamine hydrolase (LpxH) (Escherichia coli (strain K12), UniProt P43341); experiment: Enzymatic IC50 assay of Escherichia coli LpxH (UMP/CMP-Glo luminescence); assay type: biochemical; conditions: Enzymatic IC50 against Escherichia coli LpxH; read-out: IC50 (converted)
Procedure, shortened: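 LpxH (2 nM) preincubated 10 min at room temperature with compound (100 μM to 1.7 nM) in Tris-HCl pH7.5 buffer with 2.5 mM MnCl2, then reacted with 5 μM UDP-DAG for 20 min. Reaction heat-stopped at 95° C.; released UMP converted to ATP and read by luciferase luminescence (UMP/CMP-Glo).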

Chain of Escherichia coli UDP-2,3-diacylglucosamine hydrolase (LpxH) (P43341 whole entry): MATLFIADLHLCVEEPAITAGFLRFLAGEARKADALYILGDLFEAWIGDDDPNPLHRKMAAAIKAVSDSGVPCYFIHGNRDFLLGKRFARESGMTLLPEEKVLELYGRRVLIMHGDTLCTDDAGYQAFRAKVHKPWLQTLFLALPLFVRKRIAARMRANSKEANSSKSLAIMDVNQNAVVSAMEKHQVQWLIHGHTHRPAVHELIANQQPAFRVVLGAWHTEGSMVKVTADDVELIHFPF

Row | SMILES | MIC [1] [mg/L] | MIC [2] [mg/L] | MIC [3] [mg/L] | Clearance of Human microsome [4] [L/h/kg] | IC50 [5] [nM]
1 | CN(C)CCCNC(=O)c1cnc(C(F)(F)c2cc(Cl)nc(N3CCN(S(=O)(=O)c4ccc(N5C[C@H](N)CC5=O)cc4)CC3)c2)cn1 [Example 023, 5-[[2-chloro-6-[4-[4-[(4R)-4-amino-2-oxo-pyrrolidin-1-yl]phenyl]sulfonylpiperazin-1-yl]-4-pyridyl]-difluoro-methyl]-N-[3-(dimethylamino)propyl]pyrazine-2-carboxamide] | 1.4 (≈ 2.02 µM) | 1.4 (≈ 2.02 µM) | 2.9 (≈ 4.19 µM) | 0.369 | < 2.89
2 | NCC[N+]1(CCNC(=O)[C@H]2CC[C@H](C(F)(F)c3cc(Cl)nc(N4CCN(S(=O)(=O)c5ccc(N6C[C@H](N)CC6=O)cc5)CC4)c3)CC2)CCCC1 [Example 074, Trans-N-[2-[1-(2-aminoethyl)pyrrolidin-1-ium-1-yl]ethyl]-4-[[2-[4-[4-[(4R)-4-amino-2-oxo-pyrrolidin-1-yl]phenyl]sulfonylpiperazin-1-yl]-6-chloro-4-pyridyl]-difluoro-methyl]cyclohexanecarboxamide] | 1.9 | 1.9 | 1.9 | 0.369 | 39.9
3 | NCCCNC(=O)c1ccc(C(F)(F)c2cc(Cl)nc(N3CCN(S(=O)(=O)c4ccc(N5C[C@H](N)CC5=O)cc4)CC3)c2)nc1 [Example 026, N-(3-aminopropyl)-6-[[2-chloro-6-[4-[4-[(4R)-4-amino-2-oxo-pyrrolidin-1-yl]phenyl]sulfonylpiperazin-1-yl]-4-pyridyl]-difluoro-methyl]pyridine-3-carboxamide] | 0.78 (≈ 1.18 µM) | 0.78 (≈ 1.18 µM) | 0.78 (≈ 1.18 µM) | 0.369 | 10.6
4 | NCCCNC(=O)C12CCC(C(F)(F)c3cc(Cl)nc(N4CCN(S(=O)(=O)c5ccc(N6C[C@H](N)CC6=O)cc5)CC4)c3)(CC1)C2 [Example 034, N-(3-aminopropyl)-4-[[2-chloro-6-[4-[4-[(4R)-4-amino-2-oxo-pyrrolidin-1-yl]phenyl]sulfonylpiperazin-1-yl]-4-pyridyl]-difluoro-methyl]norbornane-1-carboxamide] | 1.1 (≈ 1.62 µM) | 1.7 (≈ 2.5 µM) | 1.1 (≈ 1.62 µM) | 0.369 | 29.4
5 | NCC(=O)NCCNC(=O)[C@H]1CC[C@H](C(F)(F)c2cc(Cl)nc(N3CCN(S(=O)(=O)c4ccc(N5C[C@H](N)CC5=O)cc4)CC3)c2)CC1 [Example 075, Trans-N-[2-[(2-aminoacetyl)amino]ethyl]-4-[[2-chloro-6-[4-[4-[(4R)-4-amino-2-oxo-pyrrolidin-1-yl]phenyl]sulfonylpiperazin-1-yl]-4-pyridyl]-difluoro-methyl]cyclohexanecarboxamide] | 2.3 (≈ 3.23 µM) | 2.3 (≈ 3.23 µM) | 1.2 (≈ 1.69 µM) | 0.6282 | 8.44
6 | N[C@@H]1CC(=O)N(c2ccc(S(=O)(=O)N3CCN(c4cc(C(F)(F)[C@H]5CC[C@H](C(=O)NCC6CNC6)CC5)cc(Cl)n4)CC3)cc2)C1 [Example 002, Trans-4-[[2-[4-[4-[(4R)-4-amino-2-oxo-pyrrolidin-1-yl]phenyl]sulfonylpiperazin-1-yl]-6-chloro-4-pyridyl]-difluoro-methyl]-N-(azetidin-3-ylmethyl)cyclohexanecarboxamide] | 1.8 (≈ 2.65 µM) | 1.8 (≈ 2.65 µM) | 1.8 (≈ 2.65 µM) | 0.369 | < 2.94
7 | NCC1CN(C(=O)[C@H]2CC[C@H](C(F)(F)c3cc(Cl)nc(N4CCN(S(=O)(=O)c5ccc(N6C[C@H](N)CC6=O)cc5)CC4)c3)CC2)C1 [Example 057] | 1.1 (≈ 1.62 µM) | 1.1 (≈ 1.62 µM) | 1.1 (≈ 1.62 µM) | 0.369 | 2.94
8 | NCCNC(=O)c1cnc(C(F)(F)c2cc(Cl)nc(N3CCN(S(=O)(=O)c4ccc(N5C[C@H](N)CC5=O)cc4)CC3)c2)cn1 [Example 024, N-(2-aminoethyl)-5-[[2-chloro-6-[4-[4-[(4R)-4-amino-2-oxo-pyrrolidin-1-yl]phenyl]sulfonylpiperazin-1-yl]-4-pyridyl]-difluoro-methyl]pyrazine-2-carboxamide] | 0.69 (≈ 1.06 µM) | 0.69 (≈ 1.06 µM) | 0.69 (≈ 1.06 µM) | 0.6732 | 4.61
9 | NCC(O)CNC(=O)[C@H]1CC[C@H](C(F)(F)c2cc(Cl)nc(N3CCN(S(=O)(=O)c4ccc(N5C[C@H](N)CC5=O)cc4)CC3)c2)CC1 (stereo partly drawn) [Example 036, Trans-N-(3-amino-2-hydroxy-propyl)-4-[[2-chloro-6-[4-[4-[(4R)-4-amino-2-oxo-pyrrolidin-1-yl]phenyl]sulfonylpiperazin-1-yl]-4-pyridyl]-difluoro-methyl]cyclohexanecarboxamide] | 1.1 (≈ 1.61 µM) | 1.1 (≈ 1.61 µM) | 1.1 (≈ 1.61 µM) | 0.369 | 5.85
10 | NCCCNC(=O)[C@H]1CC[C@H](C(F)(F)c2cc(Cl)nc(N3CCN(S(=O)(=O)c4ccc(N5CC(N6CCNCC6)CC5=O)cc4)CC3)c2)CC1 (stereo partly drawn) [Example 060, Trans-N-(3-aminopropyl)-4-[[2-chloro-6-[4-[4-(2-oxo-4-piperazin-1-yl-pyrrolidin-1-yl)phenyl]sulfonylpiperazin-1-y1]-4-pyridyl]-difluoro-methyl]cyclohexanecarboxamide] | 1.8 (≈ 2.44 µM) | 2.4 (≈ 3.26 µM) | 1.2 (≈ 1.63 µM) | 0.487 | < 2.71
11 | NCCCNC(=O)c1cnc(C(F)(F)c2cc(Cl)nc(N3CCN(S(=O)(=O)c4ccc(N5C[C@H](N)CC5=O)cc4)CC3)c2)cn1 [Example 021, N-(3-aminopropyl)-5-[[2-chloro-6-[4-[4-[(4R)-4-amino-2-oxo-pyrrolidin-1-yl]phenyl]sulfonylpiperazin-1-yl]-4-pyridyl]-difluoro-methyl]pyrazine-2-carboxamide] | 1.3 (≈ 1.96 µM) | 2.2 (≈ 3.31 µM) | 1.8 (≈ 2.71 µM) | 0.651 | 3.01
12 | NCC1(NC(=O)[C@H]2CC[C@H](C(F)(F)c3cc(Cl)nc(N4CCN(S(=O)(=O)c5ccc(N6C[C@H](N)CC6=O)cc5)CC4)c3)CC2)CC1 [Example 012, Trans-N-[1-(aminomethyl)cyclopropyl]-4-[[2-[4-[4-[(4R)-4-amino-2-oxo-pyrrolidin-1-yl]phenyl]sulfonylpiperazin-1-yl]-6-chloro-4-pyridyl]-difluoro-methyl]cyclohexanecarboxamide] | 0.57 (≈ 0.838 µM) | 0.57 (≈ 0.838 µM) | 0.57 (≈ 0.838 µM) | 0.371 | 2.94
13 | CN(C)CCCNC(=O)c1ccc(C(F)(F)c2cc(Cl)nc(N3CCN(S(=O)(=O)c4ccc(N5C[C@H](N)CC5=O)cc4)CC3)c2)cc1 [Example 020, 4-[[2-chloro-6-[4-[4-[(4R)-4-amino-2-oxo-pyrrolidin-1-yl]phenyl]sulfonylpiperazin-1-yl]-4-pyridyl]-difluoro-methyl]-N-[3-(dimethylamino)propyl]benzamide] | 0.72 (≈ 1.04 µM) | 0.72 (≈ 1.04 µM) | 0.72 (≈ 1.04 µM) | 0.569 | 2.9
14 | NCCN1CCN(C(=O)[C@H]2CC[C@H](C(F)(F)c3cc(Cl)nc(N4CCN(S(=O)(=O)c5ccc(N6C[C@H](N)CC6=O)cc5)CC4)c3)CC2)CC1 [Example 013, Trans-(4R)-4-amino-1-[4-[4-[4-[[4-[4-(2-aminoethyl)piperazine-1-carbonyl]cyclohexyl]-difluoro-methyl]-6-chloro-2-pyridyl]piperazin-1-yl]sulfonylphenyl]pyrrolidin-2-one] | 2.6 (≈ 3.59 µM) | 2.6 (≈ 3.59 µM) | 1.3 (≈ 1.8 µM) | 0.406 | 4.15
15 | N[C@@H]1CC(=O)N(c2ccc(S(=O)(=O)N3CCN(c4cc(C(F)(F)[C@H]5CC[C@H](C(=O)NC6CNCC6O)CC5)cc(Cl)n4)CC3)cc2)C1 (stereo partly shown) [Example 006] | 1.1 (≈ 1.58 µM) | 1.1 (≈ 1.58 µM) | 1.1 (≈ 1.58 µM) | 0.369 | 4.31
16 | NCCN(CCN)C(=O)[C@H]1CC[C@H](C(F)(F)c2cc(Cl)nc(N3CCN(S(=O)(=O)c4ccc(N5C[C@H](N)CC5=O)cc4)CC3)c2)CC1 [Example 043] | 0.57 (≈ 0.817 µM) | 1.1 (≈ 1.58 µM) | 1.1 (≈ 1.58 µM) | 0.596 | 35.9
17 | NCCCNC(=O)C12CCC(C(F)(F)c3cc(Cl)nc(N4CCN(S(=O)(=O)c5ccc(N6C[C@H](N)CC6=O)cc5)CC4)c3)(CC1)CC2 [Example 033, N-(3-aminopropyl)-4-[[2-chloro-6-[4-[4-[(4R)-4-amino-2-oxo-pyrrolidin-1-yl]phenyl]sulfonylpiperazin-1-yl]-4-pyridyl]-difluoro-methyl]bicyclo[2.2.2]octane-1-carboxamide] | 0.57 (≈ 0.821 µM) | 1.1 (≈ 1.58 µM) | 0.43 (≈ 0.619 µM) | 0.6462 | 5.76
